This is an account of results in patent publication US20210300924A1, “5-[6-[[3-(4,5,6,7-TETRAHYDROPYRAZOLO[4,3-C]PYRIDIN-1-YL)AZETIDIN-1-YL]METHYL]MORPHOLIN-4-YL]QUINOLINE-8-CARBONITRILE DERIVATIVES AND SIMILAR COMPOUNDS AS TLR7-9 ANTAGONISTS FOR TREATING SYSTEMIC LUPUS ERYTHEMATOSUS” (Hoffmann-La Roche Inc., priority 2018, published 2021).

In one series the target is T1, CYP2D6 (Homo sapiens, UniProt P10635).
T1 construct: tissue BD-Gentest 452117; host or cells: human liver microsomes
Kind of series: CYP inhibition assay in human liver microsome. Conditions: human liver microsomes, probe dextromethorphan, dextromethorphan substrate, percentage inhibition <0: not or weak inhibitor, read-out: CYP 2D6 inhibition % @ 10 μM. Format: in vitro ADME. On the procedure: This is a high throughput screening assay used for assessment of reversible inhibition of CYP2D6 activity of test compounds in human liver microsome (HLM) in early discovery stage.
10 mM DMSO stock solutions of test compounds were diluted in DMSO to generate 2 mM intermediate stock solution. 250 nL of intermediate stock solution were transferred in duplicate into 3 separate 384 well microtitre plates (assay-ready plates). A mixture of HLM and each substrate was made up. 45 μL of HLM substrate mix was then transferred to each well of an assay ready plate and mixed. The negative (solvent) and positive control (standard inhibitor for CYP 2D6) were included in each assay ready plate. The assay ready plate was warmed to 37° C. in an incubator over 10 minutes. 5 μL pre-warmed NADPH regenerating system was added to each incubation well to start the reaction. Final incubation volume was 50 μL. The assay plate then was placed back in the 37° C. incubator. After 10 minutes incubation, incubates were quenched by addition of 50 μL 100% acetonitrile containing internal standards (20 ng/mL D3-Dextrorphan). The supernatants were collected for RapidFire/MS/MS analysis.
RapidFire online solid phase extraction/sample injection system (Agilent) coupled with API4000 triple quadrupole mass spectrometer (AB Sciex) were used for sample analysis. The mobile phase composed of acetonitrile and water supplemented with 0.1% formic acid. A C4 solid phase extraction cartridge is used for sample separation. MS detection is achieved in positive ion MRM mode.
Peak areas for substrate, metabolite and internal standard are determined using the RapidFire integrator software (version 3.6.12009.12296). Peak area ratios (PAR) of metabolite and internal standard (stable-labelled metabolite) are then calculated. The measurement window for each experiment is then defined:
PAR (0% activity)=average PAR for all incubations containing concentrated inhibitor;
Par (100% activity)=average PAR for all incubations containing no inhibitor (DMSO controls);
% Activity (test inhibitor)=
[PAR(test inhibitor)−PAR(0% activity)]/[PAR(100% activity)−PAR(0% activity)]; % Inhibition (test inhibitor)=100−% Activity (test inhibitor).

The target of another series is T2, TLR9 (Homo sapiens, UniProt Q9NR96).
T2 sequence (Q9NR96 26-1032): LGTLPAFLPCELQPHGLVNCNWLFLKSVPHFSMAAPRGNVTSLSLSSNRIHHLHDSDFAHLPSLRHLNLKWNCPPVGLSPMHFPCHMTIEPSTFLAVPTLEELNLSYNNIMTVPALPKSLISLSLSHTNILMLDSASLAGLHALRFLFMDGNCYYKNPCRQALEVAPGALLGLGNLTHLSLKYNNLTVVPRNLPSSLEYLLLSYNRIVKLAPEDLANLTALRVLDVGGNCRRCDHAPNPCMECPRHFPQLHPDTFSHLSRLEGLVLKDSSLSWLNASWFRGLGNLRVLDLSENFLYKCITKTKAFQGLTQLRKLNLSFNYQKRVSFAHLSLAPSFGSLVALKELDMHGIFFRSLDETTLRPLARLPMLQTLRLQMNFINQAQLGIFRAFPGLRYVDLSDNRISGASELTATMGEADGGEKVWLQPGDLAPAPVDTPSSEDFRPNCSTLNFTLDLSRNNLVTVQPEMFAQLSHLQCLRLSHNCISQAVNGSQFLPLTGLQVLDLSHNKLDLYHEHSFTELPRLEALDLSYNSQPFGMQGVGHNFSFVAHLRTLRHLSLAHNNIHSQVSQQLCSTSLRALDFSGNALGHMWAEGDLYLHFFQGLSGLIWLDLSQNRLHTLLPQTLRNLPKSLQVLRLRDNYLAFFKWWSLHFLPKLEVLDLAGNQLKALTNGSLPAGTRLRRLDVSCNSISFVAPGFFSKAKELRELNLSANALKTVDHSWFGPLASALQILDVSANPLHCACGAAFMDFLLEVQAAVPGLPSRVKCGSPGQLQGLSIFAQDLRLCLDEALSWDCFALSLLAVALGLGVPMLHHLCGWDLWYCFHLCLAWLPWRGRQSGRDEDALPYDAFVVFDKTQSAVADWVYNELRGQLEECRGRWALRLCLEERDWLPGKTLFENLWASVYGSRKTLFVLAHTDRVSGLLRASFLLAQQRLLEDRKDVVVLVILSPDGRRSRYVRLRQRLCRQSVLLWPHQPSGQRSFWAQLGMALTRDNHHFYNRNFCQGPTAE
Kind of series: HEK293-Blue-hTLR-9 cells assay. It is filed as cell-based. Also noted: host or cells: HEK293 (HEK-Blue hTLR9). Particulars: HEK293-Blue-hTLR9 cells, ODN2006 stimulation, 20 hrs, SEAP reporter; read-out: HEK/hTLR9 IC50. An excerpt: HEK293-Blue-hTLR-9 Cells Assay:
A stable HEK293-Blue-hTLR-9 cell line was purchased from InvivoGen (Cat. #: hkb-htlr9, San Diego, Calif., USA). These cells were originally designed for studying the stimulation of human TLR9 by monitoring the activation of NF-κB. A SEAP (secreted embryonic alkaline phosphatase) reporter gene was placed under the control of the IFN-β minimal promoter fused to five NF-κB and AP-1-binding sites. The SEAP was induced by activating NF-κB and AP-1 via stimulating HEK-Blue hTLR9 cells with TLR9 ligands. Therefore the reporter expression was declined by TLR9 antagonist under the stimulation of a ligand, such as ODN2006 (Cat. #: tlr1-2006-1, Invivogen, San Diego, Calif., USA), for incubation of 20 hrs. The cell culture supernatant SEAP reporter activity was determined using QUANTI-Blue™ kit (Cat. #: rep-01, Invivogen, San Diego, Calif., USA) at a wavelength of 640 nm, a detection medium that turns purple or blue in the presence of alkaline phosphatase.
HEK293-Blue-hTLR9 cells were incubated at a density of 250,000-450,000 cells/mL in a volume of 170 μL in a 96-well plate in Dulbecco's Modified Eagle's medium (DMEM) containing 4.5 g/L glucose, 50 U/mL penicillin, […], 2 mM L-glutamine, 10% (v/v) heat-inactivated fetal bovine serum with addition of 20 μL test compound in a serial dilution in the presence of final DMSO at 1% and 10 μL of 20 uM ODN2006 in above DMEM, perform incubation under 37° C. in a CO2 incubator for 20 hrs. Then 20 μL of the supernatant from each well was incubated with 180 μL Quanti-blue substrate solution at 37° C. for 2 h and the absorbance was read at 620-655 nm using a spectrophotometer. The signaling pathway that TLR9 activation leads to downstream NF-κB activation has been widely accepted, and therefore similar reporter assay was modified for evaluating TLR9 antagonist.

T1 sequence (P10635 whole entry): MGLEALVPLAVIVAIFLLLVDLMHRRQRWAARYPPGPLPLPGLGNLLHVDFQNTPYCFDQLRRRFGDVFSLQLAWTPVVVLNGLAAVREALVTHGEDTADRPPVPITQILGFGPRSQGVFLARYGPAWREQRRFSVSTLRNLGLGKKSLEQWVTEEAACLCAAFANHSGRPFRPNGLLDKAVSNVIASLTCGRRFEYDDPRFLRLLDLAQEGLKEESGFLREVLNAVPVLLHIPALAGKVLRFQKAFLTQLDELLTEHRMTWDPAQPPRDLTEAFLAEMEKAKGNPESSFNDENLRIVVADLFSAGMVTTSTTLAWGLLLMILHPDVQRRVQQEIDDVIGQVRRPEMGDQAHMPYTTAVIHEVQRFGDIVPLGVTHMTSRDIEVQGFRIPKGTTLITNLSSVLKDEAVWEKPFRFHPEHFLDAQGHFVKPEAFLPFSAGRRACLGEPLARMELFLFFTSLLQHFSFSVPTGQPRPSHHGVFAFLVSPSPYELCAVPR

A word on the inhibition: it is the relative decrease from the control value, in per cent. In the case of `C[C@@H]1CN(c2ccc(C#N)c3ncccc23)C[C@H](CN2CC(n3ncc4c3CCN[C@@H]4C)C2)O1` [Example 20, 5-[(2R,6S)-2-methyl-6-[[3-[(4R)-4-methyl-4,5,6,7-tetrahydropyrazolo[4,3-c]pyridin-1-yl]azetidin-1-yl]methyl]morpholin-4-yl]quinoline-8-carbonitrile], on CYP2D6, the inhibition at 10 min, 10 µM is -6%. Moreover, the IC50 at TLR9 amounted to 76 nM.
On the same counts, the results for `C[C@@H]1CN(c2ccc(C#N)c3ncccc23)C[C@H](CN2CC(n3cc4c(n3)[C@@H](C)CNC4)C2)O1` (single isomer, unassigned) [Example 26] are 20% and 89 nM.
Consider `C[C@@H]1CN(c2ccc(C#N)c3ncccc23)C[C@H](CN2CC(n3cc4c(n3)CNCC4)C2)O1` [Example 4, 5-[(2R,6S)-2-methyl-6-[[3-(4,5,6,7-tetrahydropyrazolo[3,4-c]pyridin-2-yl)azetidin-1-yl]methyl]morpholin-4-yl]quinoline-8-carbonitrile], for which, at CYP2D6, the inhibition at 10 min, 10 µM came to 7.5%. In addition, the IC50 at TLR9 was < 32 nM.
On the same counts, the results for `C[C@@H]1Cc2cnn(C3CN(C[C@H]4CN(c5ccc(C#N)c6ncccc56)C[C@@H](C)O4)C3)c2CN1` (single isomer, unassigned) [Example 28] are 0.5% and 71 nM.
Taken in the same sequence, the figures for `Cc1nn(C2CN(C[C@H]3CN(c4ccc(C#N)c5ncccc45)C[C@@H](C)O3)C2)c2c1CCNC2` [Example 42, 5-[(2R,6S)-2-methyl-6-[[3-(3-methyl-4,5,6,7-tetrahydropyrazolo[3,4-c]pyridin-1-yl)azetidin-1-yl]methyl]morpholin-4-yl]quinoline-8-carbonitrile] were 17.5% and 134 nM.
Taken in the same sequence, the figures for `C[C@@H]1CN(c2ccc(C#N)c3ncccc23)C[C@H](CN2CC(n3ncc4c3C[C@H](C)NC4)C2)O1` [Example 18, 5-[(2R,6S)-2-methyl-6-[[3-[(6S)-6-methyl-4,5,6,7-tetrahydropyrazolo[4,3-c]pyridin-1-yl]azetidin-1-yl]methyl]morpholin-4-yl]quinoline-8-carbonitrile] were -2.5% and 147 nM.
In the case of `Cc1c2c(nn1C1CN(C[C@H]3CN(c4ccc(C#N)c5ncccc45)C[C@@H](C)O3)C1)CCN(C)C2` [Example 15, 5-[(2S,6R)-2-[[3-(3,5-dimethyl-6,7-dihydro-4H-pyrazolo[4,3-c]pyridin-2-yl)azetidin-1-yl]methyl]-6-methyl-morpholin-4-yl]quinoline-8-carbonitrile], on CYP2D6, the inhibition at 10 min, 10 µM was -10.5%. The IC50 at TLR9 turned out to be 128 nM.
As for `C[C@@H]1Cc2cn(C3CN(C[C@H]4CN(c5ccc(C#N)c6ncccc56)C[C@@H](C)O4)C3)nc2CN1` (single isomer, unassigned) [Example 30], the inhibition at 10 min, 10 µM at CYP2D6 is 3.5%. Besides, the IC50 at TLR9 was found to be 57 nM.
On the same counts, the results for `C[C@@H]1CN(c2ccc(C#N)c3ncccc23)C[C@H](CN2CC(n3ncc4c3[C@@H](C)NCC4)C2)O1` (single isomer, unassigned) [Example 31] are -3.5% and 61 nM.
As to `CC(C)N1CCc2cn(C3CN(C[C@H]4CN(c5ccc(C#N)c6ncccc56)C[C@@H](C)O4)C3)nc2C1` [Example 9, 5-[(2S,6R)-2-[[3-(6-isopropyl-5,7-dihydro-4H-pyrazolo[3,4-c]pyridin-2-yl)azetidin-1-yl]methyl]-6-methyl-morpholin-4-yl]quinoline-8-carbonitrile], the inhibition at 10 min, 10 µM at CYP2D6 came out at 15%. For the same compound, the IC50 at TLR9 came to 172 nM.
Taken in the same sequence, the figures for `C[C@@H]1CN(c2ccc(C#N)c3ncccc23)C[C@H](CN2CC(n3ncc4c3CNCC4)C2)O1` [Example 3, 5-[(2R,6S)-2-methyl-6-[[3-(4,5,6,7-tetrahydropyrazolo[3,4-c]pyridin-1-yl)azetidin-1-yl]methyl]morpholin-4-yl]quinoline-8-carbonitrile] were 10.5% and 51 nM.
In the case of `C[C@@H]1CN(c2ccc(C#N)c3ncccc23)C[C@H](CN2CC(n3cc4c(n3)[C@H](C)NCC4)C2)O1` (single isomer, unassigned) [Example 34], the inhibition at 10 min, 10 µM at CYP2D6 is -11.5%. The IC50 on TLR9 was found to be 36 nM.
On the same counts, the results for `C[C@@H]1CN(c2ccc(C#N)c3ncccc23)C[C@H](CN2CC(n3cc4c(n3)CCN[C@H]4C)C2)O1` [Example 23, 5-[(2R,6S)-2-methyl-6-[[3-[(4S)-4-methyl-4,5,6,7-tetrahydropyrazolo[4,3-c]pyridin-2-yl]azetidin-1-yl]methyl]morpholin-4-yl]quinoline-8-carbonitrile] are 3% and 84 nM.
Regarding `C[C@@H]1CN(c2ccc(C#N)c3ncccc23)C[C@H](CN2CCC(n3cc4c(n3)CCNC4)CC2)O1` [Example 36, 5-[(2R,6S)-2-methyl-6-[[4-(4,5,6,7-tetrahydropyrazolo[4,3-c]pyridin-2-yl)-1-piperidyl]methyl]morpholin-4-yl]quinoline-8-carbonitrile], the inhibition at 10 min, 10 µM on CYP2D6 turned out to be 20.3%. Further, on TLR9, the IC50 is 55 nM.
On the same counts, the results for `Cc1c2c(nn1C1CN(C[C@H]3CN(c4ccc(C#N)c5ncccc45)C[C@@H](C)O3)C1)CCNC2` [Example 13, 5-[(2R,6S)-2-methyl-6-[[3-(3-methyl-4,5,6,7-tetrahydropyrazolo[4,3-c]pyridin-2-yl)azetidin-1-yl]methyl]morpholin-4-yl]quinoline-8-carbonitrile] are 3% and 118 nM.
